The results in this text go back to patent US5326902A, “Oxyalkyne compounds, pharmaceutical compositions containing them and processes for preparing such compounds and compositions” (Gruenenthal GmbH, priority 1992, dated 1994).

The subject of the test is Leukotriene-synthesis. The test is described as follows: Inhibition of Leukotriene-synthesis Induced by FMLP/merthiolate of Human Polymorphonuclear Leukocytes. It is filed as cell-based. To be noted: Leukocyte, 5 minutes preincubation at 37° C., centrifuged and resuspended in HBSS before merthiolate (40 μM) and FMLP (10^-7 M), read-out: IC50-value of the reversible inhibitory action. The procedure:
Human granulocytes were isolated by dextran sedimentation and a Percoll gradient method and suspended in HBSS (Hanks buffered saline solution) at 1×10^7 cells/ml. The cells were incubated in the presence of a compound according to the invention or a solvent (ethanol and/or dimethyl sulfoxide) at 37° C. for 2 minutes, then with merthiolate (sodium ethylmercurithiosalicylate; 40 μM) for 2 minutes and thereafter with FMLP (formyl-methionyl-leucylphenylalanine; 10^-7 M) for 15 minutes. After solid phase extraction, the metabolites of arachidonic acid 5-HETE, LTB4, 6-trans-LTB4 -isomers, 20-OH-LTB4 and 20-COOH-LTB4 were identified by RP-HPLC (M. Haurand and L. Flohe in Biochem. Pharmacol. 38, 2129 to 2137 (1989)).
To investigate the reversibility of the inhibitory action, the cells were incubated with a compound according to the invention or a solvent (ethanol and/or dimethyl sulfoxide) at 37° C. for 5 minutes, centrifuged at 300 × g for 5 minutes, and resuspended in 2 ml of HBSS. Then the cells were incubated with merthiolate (40 μM) at 37° C. for 2 minutes and thereafter with FMLP (10^-7 M) for 15 minutes. The IC50 -value of the reversible inhibitory action was 2 μmolar when the compound prepared according to Example 1 was used.

What is called IC50 is the concentration that inhibits the measured activity by half. Consider `CC(=O)N(O)Cc1ccc(C(O)C#Cc2ccccc2)cc1` (racemic) [Example 1, N-Hydroxy-N-[4-[1-hydroxy-3-phenyl-prop-2-yn-1-yl]benzyl]acetamide], for which the IC50 came to 2000 nM.
